Test results taken from US20050065203A1, “Method of reducing type 2 diabetes in high risk patients” (priority 2001, published 2005).
Like-named read-outs stand apart in the source and are kept apart here.

Key:
[1] = test system: patients without known diabetes but with vascular disease; assay: Heart Outcomes Prevention Evaluation (HOPE) trial: new diagnosis of diabetes; type: in vivo, human; conditions: for New Diabetes With Glycated Hemoglobulin ≧ 110%, ULN, RR (85%) CI) / New Diabetes With Oral Agents or Insulin, RR (85%) CI) / New Diabetes With Oral Agents or insulin and Glycated Hemoglobulin ≧ 110%, ULN, RR (85%) CI) / New Diabetes, RR (85%) CI): vs placebo
Procedure: The design of the Heart Outcomes Prevention Evaluation (HOPE) trial has been described in detail in previous publications. Briefly, individuals who were 55 years or older with no evidence of left ventricular dysfunction or heart failure and who had evidence of vascular disease or who had diabetes and one other risk factor were eligible as long as they had no indication or contraindication to receiving an ACE-inhibitor. The study was conducted in 26 hospitals in 19 countries from 1994 to 1999. All patients provided written informed consent.
Of 10576 eligible patients who participated in a run-in period during which they received 2.5 mg ramipril once daily for 1 week followed by matching placebo for 10 to 14 days, 1035 (9.8%) were excluded from randomization (3.2% for side effects, 3.7% for lack of consent). […] In the following it is primarily foccuessed on the latter group of patients. Of these patients, 5720 were randomized to receive up to 10 mg of ramipril once per day or equivalent placebo. One hundred sixty-seven patients who were randomized to receive a low dose (2.5 mg/day) of ramipril as part of the Study to Evaluate Carotid Ultrasound changes with Ramipril and Vitamin E (SECURE). Substudy results are not included. All randomized patients were also randomized to receive 400 IU of Vitamin E or placebo.
Follow-up visits occurred at 1 month and 6 months after randomization and then every 6 months (mean follow-up of 4.5 years). At each visit, it was documented whether the diagnosis of diabetes had been made since the last visit.
The primary outcome of this analysis is a new diagnosis of diabetes recorded on the basis of self-report. […] Hemoglobin A1c (HbA1c) levels and medications used among those diagnosed as having diabetes were also recorded. The HbA1c levels; were determined locally. Values higher than 110% of the upper limit of normal for each laboratory were considered to be biochemical confirmation of diabetes.
Survival curves utilizing the Kaplan Meier and log-rank procedures were used to describe and compare the results in the 2 treatment groups. Because of the factorial design, all analyses were stratified for randomization to vitamin E or placebo. Subgroup analyses were conducted using tests of interaction in the Cox regression model.
Design, Setting and Participants: The randomized, controlled Heart Outcomes Prevention Evaluation trial of 5720 patients older than 55 years without known diabetes but with vascular disease who were followed up for a mean of 4.5 years. The study included 267 hospitals in 19 countries and was conducted between 1994 and 1999.
Intervention: Patients were randomly assigned to receive ramipril, up to 10 mg/d (n=2837), or placebo (n=2883).
Main Outcome Measure: Diagnosis of diabetes determined from self-report at follow-up visits every 6 months, compared between the 2 groups.

[2] = test system: patients without known diabetes but with vascular disease; conditions: study participants without known diabetes at randomization (N Engl J. Med. 2000); cited from earlier work
[3] = patients with diabetes in HOPE, serial annual recordings, first 2 years; cited from earlier work
[4] = test system: people at high risk, with and without a diagnosis of diabetes; conditions: cited from earlier work
[5] = SECURE study, P=0.03, cited from earlier work
[6] = ramipril up to 10 mg/d (n=2837), mean follow-up 4.5 years
[7] = subgroup Body mass index >27.7 Kg/m^2
[8] = subgroup Without microalbuminuria

CCOC(=O)[C@H](CCc1ccccc1)N[C@@H](C)C(=O)N1[C@H](C(=O)O)C[C@@H]2CCC[C@@H]21 [ramipril]
New Diabetes With Glycated Hemoglobulin ≧ 110%, ULN, No. of patients ([1]; No new MA or ON): 42 | New Diabetes With Glycated Hemoglobulin ≧ 110%, ULN, proportion of patients (in parentheses) ([1]; No new MA or ON): 1.7 | New Diabetes With Oral Agents or Insulin, No. of patients ([1]; No new MA or ON): 45 | New Diabetes With Oral Agents or Insulin, proportion of patients (in parentheses) ([1]; No new MA or ON): 1.8 | New Diabetes With Oral Agents or insulin and Glycated Hemoglobulin ≧ 110%, ULN, No. of patients ([1]; No new MA or ON): 30 | New Diabetes With Oral Agents or insulin and Glycated Hemoglobulin ≧ 110%, ULN, proportion of patients (in parentheses) ([1]; No new MA or ON): 1.2 | New Diabetes, No. of patients ([1]; No new MA or ON): 82 | New Diabetes, proportion of patients (in parentheses) ([1]; No new MA or ON): 3.3 | New Diabetes With Glycated Hemoglobulin ≧ 110%, ULN, RR (85%) CI) ([1]; No new MA or ON): 0.66 (0.48-0.98) | New Diabetes With Oral Agents or Insulin, RR (85%) CI) ([1]; No new MA or ON): 0.56 (0.39-0.81) | New Diabetes With Oral Agents or insulin and Glycated Hemoglobulin ≧ 110%, ULN, RR (85%) CI) ([1]; No new MA or ON): 0.60 (0.38-0.94) | New Diabetes, RR (85%) CI) ([1]; No new MA or ON): 0.67 (0.51-0.89) | New Diabetes With Glycated Hemoglobulin ≧ 110%, ULN, No. of patients ([1]; No primary event): 45 | New Diabetes With Glycated Hemoglobulin ≧ 110%, ULN, proportion of patients (in parentheses) ([1]; No primary event): 1.8 | New Diabetes With Oral Agents or Insulin, No. of patients ([1]; No primary event): 54 | New Diabetes With Oral Agents or Insulin, proportion of patients (in parentheses) ([1]; No primary event): 2.2 | New Diabetes With Oral Agents or insulin and Glycated Hemoglobulin ≧ 110%, ULN, No. of patients ([1]; No primary event): 32 | New Diabetes With Oral Agents or insulin and Glycated Hemoglobulin ≧ 110%, ULN, proportion of patients (in parentheses) ([1]; No primary event): 1.3 | New Diabetes, No. of patients ([1]; No primary event): 93 | New Diabetes, proportion of patients (in parentheses) ([1]; No primary event): 3.8 | New Diabetes With Oral Agents or Insulin, RR (85%) CI) ([1]; No primary event): 0.58 (0.42-0.82) | New Diabetes With Oral Agents or insulin and Glycated Hemoglobulin ≧ 110%, ULN, RR (85%) CI) ([1]; No primary event): 0.51 (0.33-0.78) | New Diabetes, RR (85%) CI) ([1]; No primary event): 0.69 (0.53-0.91) | New Diabetes With Glycated Hemoglobulin ≧ 110%, ULN, No. of patients ([1]; With new MA or ON): 10 | New Diabetes With Glycated Hemoglobulin ≧ 110%, ULN, proportion of patients (in parentheses) ([1]; With new MA or ON): 2.8 | New Diabetes With Oral Agents or insulin and Glycated Hemoglobulin ≧ 110%, ULN, No. of patients ([1]; With new MA or ON): 6 | New Diabetes With Oral Agents or insulin and Glycated Hemoglobulin ≧ 110%, ULN, proportion of patients (in parentheses) ([1]; With new MA or ON): 1.7 | New Diabetes, No. of patients ([1]; With new MA or ON): 20 | New Diabetes, proportion of patients (in parentheses) ([1]; With new MA or ON): 5.8 | New Diabetes With Glycated Hemoglobulin ≧ 110%, ULN, RR (85%) CI) ([1]; With new MA or ON): 0.47 (0.23-0.98) | New Diabetes With Oral Agents or insulin and Glycated Hemoglobulin ≧ 110%, ULN, RR (85%) CI) ([1]; With new MA or ON): 0.32 (0.13-0.79) | New Diabetes, RR (85%) CI) ([1]; With new MA or ON): 0.65 (0.38-1.12) | New Diabetes With Oral Agents or Insulin, No. of patients ([1]; With new NA or ON): 14 | New Diabetes With Oral Agents or Insulin, proportion of patients (in parentheses) ([1]; With new NA or ON): 3.9 | New Diabetes With Oral Agents or Insulin, RR (85%) CI) ([1]; With new NA or ON): 0.61 (0.32-1.16) | New Diabetes With Glycated Hemoglobulin ≧ 110%, ULN, No. of patients ([1]; With primary event): 7 | New Diabetes With Glycated Hemoglobulin ≧ 110%, ULN, proportion of patients (in parentheses) ([1]; With primary event): 1.9 | New Diabetes With Oral Agents or Insulin, No. of patients ([1]; With primary event): 5 | New Diabetes With Oral Agents or Insulin, proportion of patients (in parentheses) ([1]; With primary event): 1.3 | New Diabetes With Oral Agents or insulin and Glycated Hemoglobulin ≧ 110%, ULN, No. of patients ([1]; With primary event): 4 | New Diabetes With Oral Agents or insulin and Glycated Hemoglobulin ≧ 110%, ULN, proportion of patients (in parentheses) ([1]; With primary event): 1.1 | New Diabetes, No. of patients ([1]; With primary event): 9 | New Diabetes, proportion of patients (in parentheses) ([1]; With primary event): 2.4 | New Diabetes With Glycated Hemoglobulin ≧ 110%, ULN, RR (85%) CI) ([1]; With primary event): 0.59 (0.24-1.43) | New Diabetes With Oral Agents or Insulin, RR (85%) CI) ([1]; With primary event): 0.42 (0.15-1.14) | New Diabetes With Oral Agents or insulin and Glycated Hemoglobulin ≧ 110%, ULN, RR (85%) CI) ([1]; With primary event): 0.54 (0.17-1.72) | New Diabetes, RR (85%) CI) ([1]; With primary event): 0.48 (0.21-0.98) | patients diagnosed to have diabetes and glycated hemoglobin of 110% or more above upper limit of normal, % ([1]; ramipril group): 1.8% | patients with new diabetes meeting all criteria, % ([1]; ramipril group): 1.3% | patients with new diabetes receiving an oral glucose lowering agent or insulin, % ([1]; ramipril group): 2.1% | individuals who reported a new diagnosis of diabetes, % [1, 6]: 3.6% | individuals who reported a new diagnosis of diabetes, No. [1, 6]: 102 and One hundred and two | relative risk of diabetes diagnosis with glycated hemoglobin of 110% or more of ULN ([1]; ramipril vs placebo): 0.60 | relative risk of new diabetes meeting all criteria ([1]; ramipril vs placebo): 0.51 | relative risk of new diabetes with oral glucose lowering agent or insulin ([1]; ramipril vs placebo): 0.56 | relative risk of new diagnosis of diabetes ([1]; ramipril vs placebo): 0.66 | No. With Diabetes ([1]; subgroup): 39 | (%) With Diabetes [1, 7]: (5.8) % | No. With Diabetes [1, 7]: 63 | (%) With Diabetes ([1]; subgroup Body mass index ≦7.7 Kg/m^2): (2.2) % | (%) With Diabetes ([1]; subgroup Not taking diuretics): (3.4) % | No. With Diabetes ([1]; subgroup Not taking diuretics): 84 | (%) With Diabetes ([1]; subgroup Not taking β-blocker): (3.3) % | No. With Diabetes ([1]; subgroup Not taking β-blocker): 50 | (%) With Diabetes ([1]; subgroup Taking diuretics): (5.0) % | No. With Diabetes ([1]; subgroup Taking diuretics): 18 | (%) With Diabetes ([1]; subgroup Taking β-blocker): (4.0) % | No. With Diabetes ([1]; subgroup Taking β-blocker): 52 | (%) With Diabetes ([1]; subgroup Waist-hip ratio >0.93): (4.4) % | No. With Diabetes ([1]; subgroup Waist-hip ratio >0.93): 63 | (%) With Diabetes ([1]; subgroup Waist-hip ratio ≦0.93): (2.8) % | No. With Diabetes ([1]; subgroup Waist-hip ratio ≦0.93): 39 | (%) With Diabetes ([1]; subgroup With hypertension): (4.2) % | No. With Diabetes ([1]; subgroup With hypertension): 49 | (%) With Diabetes ([1]; subgroup With microalbuminuria): (4.2) % | No. With Diabetes ([1]; subgroup With microalbuminuria): 17 | (%) With Diabetes ([1]; subgroup Without hypertension): (3.2) % | No. With Diabetes ([1]; subgroup Without hypertension): 53 | (%) With Diabetes [1, 8]: (3.5) % | No. With Diabetes [1, 8]: 85 | relative risk for diabetes ([1]; subgroup who never took diuretics or β-blockers during the study, ramipril vs placebo): 0.62 | development of diabetes [2]: reduced | reduction in HbA10 levels, absolute difference [3]: 0.2% | myocardial infarction, strokes, death, and the development of diabetic nephropathy [4]: reduces | increase in fasting glucose ([5]; placebo 0.41 mmols): 0.25 mmols | increase in fasting glucose ([5]; placebo 15.8 mg/dL): 9.6 mg/dL

Vitamin E
effect on diabetes ([1]; 400 IU Vitamin E vs placebo): did not differ
